Where “and” joins values, the source holds several entries; their conditions need not be identical. Equal values may be shown once. Inconclusive results and toxic doses are left out.
Tested on: P388 leukemia ip, CD2F1 mice, survival T/C
Test: NCI In Vivo Anticancer Drug Screen. Data for tumor model P388 Leukemia (intraperitoneal) in CD2F1 (CDF1) mice
Details: endpoint: median survival time, higher = longer survival
Outline: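 Mice carrying the transplanted tumor received test compound or vehicle. Survival was recorded in each group, and the value is the treated-group measurement divided by that of the vehicle-treated control group.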

[1] = dose: 12.5 mg/kg/injection, schedule: Q01DX009 (ip), vehicle: saline with Tween-80
[2] = dose: 60.0 mg/kg/injection, schedule: Q01DX005 (ip), vehicle: saline with Tween-80
[3] = dose: 120.0 mg/kg/injection, schedule: Q01DX005 (ip), vehicle: saline with Tween-80
[4] = dose: 240.0 mg/kg/injection, schedule: Q01DX005 (ip), vehicle: saline with Tween-80
[5] = dose: 50.0 mg/kg/injection, schedule: Q01DX005 (ip), vehicle: Klucel (hydroxypropylcellulose) (HPC)
[6] = dose: 100.0 mg/kg/injection, schedule: Q01DX005 (ip), vehicle: Klucel (hydroxypropylcellulose) (HPC)
[7] = dose: 200.0 mg/kg/injection, schedule: Q01DX005 (ip), vehicle: Klucel (hydroxypropylcellulose) (HPC)
[8] = dose: 50.0 mg/kg/injection, schedule: Q01DX009 (ip), vehicle: saline with Tween-80
[9] = dose: 100.0 mg/kg/injection, schedule: Q01DX009 (ip), vehicle: saline with Tween-80
[10] = dose: 200.0 mg/kg/injection, schedule: Q01DX009 (ip), vehicle: saline with Tween-80

CCCCCCCCCCCCCCCC(=O)N(CCCCN(CCCN(C)C)C(=O)CCCCCCCCCCCCCCC)CCCN(C)C was tested, and the T/C [1] was 90 % of control and the T/C (dose: 25.0 mg/kg/injection, schedule: Q01DX009 (ip), vehicle: saline with Tween-80) was 90 % of control.
With COC(=O)C12OCC34C(CC5C(C)=C(O)C(=O)CC5(C)C3C(O)C1O)OC(=O)C(OC(=O)C=C(C)C)C24 (stereo unspecified) the T/C (dose: 0.13 mg/kg/injection, schedule: Q01DX009 (ip), vehicle: saline) was 100 % of control, the T/C (dose: 0.25 mg/kg/injection, schedule: Q01DX009 (ip), vehicle: saline) was 100 % of control and the T/C (dose: 0.5 mg/kg/injection, schedule: Q01DX009 (ip), vehicle: saline) was 96 % of control. The T/C (dose: 2.0 mg/kg/injection, schedule: Q01DX009 (ip), vehicle: saline) was 98 % of control, the T/C (dose: 4.0 mg/kg/injection, schedule: Q01DX009 (ip), vehicle: saline) was 100 % of control and the T/C (dose: 125.0 micrograms/kg/injection, schedule: Q01DX009 (ip), vehicle: saline + alcohol) was 104 % of control. The T/C (dose: 250.0 micrograms/kg/injection, schedule: Q01DX009 (ip), vehicle: saline + alcohol) was 102 % of control, the T/C (dose: 500.0 micrograms/kg/injection, schedule: Q01DX009 (ip), vehicle: saline + alcohol) was 104 % of control and the T/C (dose: 1000.0 micrograms/kg/injection, schedule: Q01DX009 (ip), vehicle: saline + alcohol) was 95 % of control. For the same compound, the T/C (dose: 2000.0 micrograms/kg/injection, schedule: Q01DX009 (ip), vehicle: saline + alcohol) was 93 % of control and the T/C (dose: 4000.0 micrograms/kg/injection, schedule: Q01DX009 (ip), vehicle: saline + alcohol) was 102 % of control.
CCN1C(NN)=NS(=O)(=O)c2ccccc21 was tested, and the T/C [2] was 103 % of control, the T/C [3] was 106 % of control and the T/C [4] was 94 % of control.
Cc1ccoc1 was tested, and the T/C (dose: 7.5 mg/kg/injection, schedule: Q01DX005 (ip), vehicle: saline with Tween-80) was 105 % of control, the T/C (dose: 15.0 mg/kg/injection, schedule: Q01DX005 (ip), vehicle: saline with Tween-80) was 100 % of control and the T/C (dose: 30.0 mg/kg/injection, schedule: Q01DX005 (ip), vehicle: saline with Tween-80) was 97 % of control. For the same compound, the T/C [2] was 98 % of control, the T/C [3] was 101 % of control and the T/C [4] was 106 % of control.
In the case of CNC(=S)P(c1ccccc1)c1ccccc1, the T/C [5] is reported as 105 % of control, the T/C [6] is reported as 96 % of control and the T/C [7] is reported as 105 % of control.
For COC1CCC(CO)O1 (stereo unspecified), the T/C (dose: 50.0 mg/kg/injection, schedule: Q01DX009 (ip), vehicle: suspension in saline) was 100 % of control, the T/C (dose: 100.0 mg/kg/injection, schedule: Q01DX009 (ip), vehicle: suspension in saline) was 108 % of control and the T/C (dose: 200.0 mg/kg/injection, schedule: Q01DX009 (ip), vehicle: suspension in saline) was 102 % of control.
With CCCCCCCCCCCCCOCC(=O)O the T/C (dose: 50.0 mg/kg/injection, schedule: Q01DX009 (ip), vehicle: Klucel (hydroxypropylcellulose) (HPC)) was 100 % of control, the T/C (dose: 100.0 mg/kg/injection, schedule: Q01DX009 (ip), vehicle: Klucel (hydroxypropylcellulose) (HPC)) was 95 % of control and the T/C (dose: 200.0 mg/kg/injection, schedule: Q01DX009 (ip), vehicle: Klucel (hydroxypropylcellulose) (HPC)) was 102 % of control.
With COc1cc(Br)cc(OC)c1N=Cc1ccccc1 the T/C [8] was 102 % of control, the T/C [9] was 97 % of control and the T/C [10] was 100 % of control.
For O=S1(=O)C2CCC(Br)C1CCC2Br (stereo unspecified), the T/C (dose: 1.56 mg/kg/injection, schedule: Q01DX005 (ip), vehicle: Klucel (hydroxypropylcellulose) (HPC)) was 99 % of control, the T/C (dose: 3.12 mg/kg/injection, schedule: Q01DX005 (ip), vehicle: Klucel (hydroxypropylcellulose) (HPC)) was 103 % of control and the T/C (dose: 6.25 mg/kg/injection, schedule: Q01DX005 (ip), vehicle: Klucel (hydroxypropylcellulose) (HPC)) was 100 % of control.
For CC1(C)N=C(N)N=C(N)N1c1ccc(C(N)=O)cc1, the T/C (dose: 25.0 mg/kg/injection, schedule: Q01DX005 (ip), vehicle: Klucel (hydroxypropylcellulose) (HPC)) was 100 % of control and 101 % of control, the T/C [5] was 99 % of control and 100 % of control and the T/C [6] was 101 % of control and 98 % of control.
For CO/N=C1\N=C(C)C(=N)N1c1ccccc1, the T/C [2] was 104 % of control, the T/C [3] was 99 % of control and the T/C [4] was 107 % of control.
In the case of Cc1c(-c2ccccc2)n(O)c(-c2ccc([N+](=O)[O-])cc2)[n+]1[O-], the T/C [8] is reported as 99 % of control, the T/C [9] is reported as 94 % of control and the T/C [10] is reported as 94 % of control.
O=c1[nH]c2nc3ccccc3n2c(=O)c2ccccc12 was tested, and the T/C (dose: 100.0 mg/kg/injection, schedule: Q01DX001 (ip), vehicle: Klucel (hydroxypropylcellulose) (HPC)) was 98 % of control, the T/C (dose: 200.0 mg/kg/injection, schedule: Q01DX001 (ip), vehicle: Klucel (hydroxypropylcellulose) (HPC)) was 98 % of control and the T/C (dose: 400.0 mg/kg/injection, schedule: Q01DX001 (ip), vehicle: Klucel (hydroxypropylcellulose) (HPC)) was 95 % of control.
With CCOc1c(N=Nc2cccc(Cl)c2)c(-c2ccccc2)nn1C(N)=S the T/C (dose: 50.0 mg/kg/injection, schedule: Q01DX005 (ip), vehicle: saline with Tween-80) was 111 % of control, the T/C (dose: 100.0 mg/kg/injection, schedule: Q01DX005 (ip), vehicle: saline with Tween-80) was 101 % of control and the T/C (dose: 200.0 mg/kg/injection, schedule: Q01DX005 (ip), vehicle: saline with Tween-80) was 96 % of control.
For Nc1ncnc2c1ccn2CC(O)CO (stereo unspecified), the T/C (dose: 50.0 mg/kg/injection, schedule: Q01DX005 (ip), vehicle: distilled water + alcohol) was 101 % of control, the T/C (dose: 100.0 mg/kg/injection, schedule: Q01DX005 (ip), vehicle: distilled water + alcohol) was 100 % of control and the T/C (dose: 200.0 mg/kg/injection, schedule: Q01DX005 (ip), vehicle: distilled water + alcohol) was 101 % of control.
In the case of CNC(=O)c1nnn(Cc2ccc(OC)cc2)c1Cl, the T/C [5] is reported as 91 % of control, the T/C [6] is reported as 100 % of control and the T/C [7] is reported as 100 % of control.
With O=C1C=CC(=Nc2ccc3c(c2)C(Br)c2ccccc2-3)O1 (stereo unspecified) the T/C (dose: 4.0 mg/kg/injection, schedule: Q01DX009 (ip), vehicle: saline with Tween-80) was 113 % of control, the T/C (dose: 6.0 mg/kg/injection, schedule: Q01DX009 (ip), vehicle: saline with Tween-80) was 104 % of control and the T/C (dose: 6.25 mg/kg/injection, schedule: Q04DX003 (ip), vehicle: saline with Tween-80) was 113 % of control. The T/C (dose: 9.0 mg/kg/injection, schedule: Q01DX009 (ip), vehicle: saline with Tween-80) was 90 % of control, the T/C [1] was 113 % of control and the T/C (dose: 12.5 mg/kg/injection, schedule: Q04DX003 (ip), vehicle: saline with Tween-80) was 100 % of control. The T/C (dose: 25.0 mg/kg/injection, schedule: Q04DX003 (ip), vehicle: saline with Tween-80) was 113 % of control.
In the case of CCOC(=O)C1=C(C(=O)c2ccccc2)C(c2ccc([N+](=O)[O-])cc2)C(C(=O)c2ccccc2)=C(C(=O)OCC)N1, the T/C (dose: 7.5 mg/kg/injection, schedule: Q01DX005 (ip), vehicle: Klucel (hydroxypropylcellulose) (HPC)) is reported as 94 % of control, the T/C (dose: 15.0 mg/kg/injection, schedule: Q01DX005 (ip), vehicle: Klucel (hydroxypropylcellulose) (HPC)) is reported as 95 % of control and the T/C (dose: 30.0 mg/kg/injection, schedule: Q01DX005 (ip), vehicle: Klucel (hydroxypropylcellulose) (HPC)) is reported as 100 % of control.
With O=C1CC(=O)C(Br)=C1Br the T/C (dose: 0.37 mg/kg/injection, schedule: Q01DX009 (ip), vehicle: saline) was 109 % of control, the T/C (dose: 0.75 mg/kg/injection, schedule: Q01DX009 (ip), vehicle: saline) was 100 % of control and the T/C (dose: 0.75 mg/kg/injection, schedule: Q04DX003 (ip), vehicle: saline with Tween-80) was 95 % of control. For the same compound, the T/C (dose: 1.5 mg/kg/injection, schedule: Q01DX009 (ip), vehicle: saline) was 100 % of control.
COC(=O)c1[nH]cnc1/N=N\N(CCF)CCF was tested, and the T/C (dose: 44.0 mg/kg/injection, schedule: Q04DX003 (ip), vehicle: saline with Tween-80) was 155 % of control and the T/C (dose: 66.0 mg/kg/injection, schedule: Q04DX003 (ip), vehicle: saline with Tween-80) was 110 % of control.
For Cc1c2cc(Cl)c3ccccc3c2c[n+]2ccccc12, the T/C (dose: 16.5 mg/kg/injection, schedule: Q01DX009 (ip), vehicle: saline) was 111 % of control, the T/C (dose: 25.0 mg/kg/injection, schedule: Q01DX009 (ip), vehicle: saline) was 121 % of control and the T/C (dose: 37.5 mg/kg/injection, schedule: Q01DX009 (ip), vehicle: saline) was 124 % of control. For the same compound, the T/C (dose: 50.0 mg/kg/injection, schedule: Q04DX003 (ip), vehicle: saline with Tween-80) was 113 % of control, the T/C (dose: 100.0 mg/kg/injection, schedule: Q04DX003 (ip), vehicle: saline with Tween-80) was 121 % of control and 123 % of control and the T/C (dose: 200.0 mg/kg/injection, schedule: Q04DX003 (ip), vehicle: saline with Tween-80) was 92 % of control. The T/C (dose: 400.0 mg/kg/injection, schedule: Q04DX003 (ip), vehicle: saline with Tween-80) was 108 % of control.

From PubChem BioAssay AID330 (DTP/NCI, 2004)
